Experimental data published in patent US7659278B2, “Use of low molecular weight compounds for preparing a medicament useful in treating mutant p53 mediated diseases” (Aprea AB, priority 2002, dated 2010).

Columns and labels:
Saos-2-His-273 cells = assay: Colony formation assay, Saos-2-His-273; format: cell-based, human
Text: Colonies were stained with Giemsa and counted 14 days after seeding.
The cells were Giemsa stained and scored for the appearance of colonies after 14 days.

Saos-2-His-273 cell line = assay: Library screening / WST-1 growth suppression and growth curves, Saos-2-His-273; format: cell-based, human; conditions: for growth suppression: with vs without mutant p53 expression, WST-1
Procedure: In contrast, the effect of treatment on Saos-2 cells lacking p53 expression was rather minor. […] The degree of WST-1 reduction, which reflects a number of living cells, was measured by microplate reader at λ490 nm according to manufacturer (Roche). The growth suppression was calculated as a difference in absorbance at λ 490 nm between untreated and treated cells and expressed in a percent from untreated control. Growth suppression=100%×(control absorbance−treated absorbance)/control absorbance. […] The experimental set up was as described in FIG. 2A. The differences in a viability were statistically significant according to an independent t-test.
(§1) Saos-2-His-273 cell line stably transfected with construct allowing expression of mutant His-273 p53 in a tetracycline-dependent manner was used for screening (Selivanova et al., 1997). p53 expression was inhibited by incubation of cells with doxycycline (5 μg/ml). Cells were grown in 96-well plates at a density of 3000 cells per well with or without doxycycline and treated with 25 μM of the compounds from the NCI library of low molecular weight (LMW) compounds. After 48 hours of incubation the proliferative cell reagent WST-1 (Roche) was added to the cells. The degree of WST-1 reduction, which reflects cell viability, was measured by microplate reader at λ490 nm according to the manufacturer (Roche).
as §1, with “1997).” for “1997). p53 expression was inhibited by incubation of cells with doxycycline (5 μg/ml).”, “doxycycline. The treatment was done at a concentration of” for “doxycycline and treated with”, “each chemical” for “the compounds”, “is proportional to the” for “reflects”, “by a” for “by”, “λ 490=n” for “λ490 nm”

[1] = system: human tumour cell lines with different p53 status (p53 null, wild type p53, mutant p53); assay: WST-1 growth suppression in cell lines with different p53 status; format: cell-based; conditions: mutant p53 vs p53 null and wild type p53 cell lines
Procedure: The degree of WST-1 reduction, which reflects a number of living cells, was measured by microplate reader at λ490 nm according to manufacturer (Roche). The growth suppression was calculated as a difference in absorbance at λ 490 nm between untreated and treated cells and expressed in a percent from untreated control. Growth suppression=100%×(control absorbance−treated absorbance)/control absorbance. […] The experimental set up was as described in FIG. 2A.
The human cell lines were as follows. p53 null: Saos-2 osteosarcoma, K562 acute myeloid leukemia, and HL60 promyelocytic leukemia Wild type p53 expressing cells: NHF normal human fibroblasts, HeLa cervical carcinoma (carries HPV E6 protein, leading to p53 degradation), U2OS osteosarcoma, and EBV-positive IARC 171 lymphoblastoid cell line. […] In addition, mouse p53 null J3D T-cell lymphoma line was used.

[2] = system: KRC/Y renal carcinoma cells (Phe-176 mutant p53); assay: Apoptosis induction by FACS, KRC/Y cells; format: cell-based, human; conditions: MIRA-1 50 μM, PRIMA-1 75 μM
Procedure: The percentage of apoptotic cells was detected by FACS analysis as it was described in FIG. 3A.
Cells were placed on 12-well plate at a density of 30000/cm^2 and treated with compounds. After 48 h incubation cells were harvested by trypsinization, fixed with 70% ethanol, treated with RNase A (0.25 mg/ml) and stained with propidium iodide (0.02 mg/ml). Samples were analyzed on a Becton Dickinson FACScan. Data were analyzed by the CellQuest software, version 3.2.1.
Thus, it appears that the defect caused by substitution of the Cys residue at position 176 is irreversible. The substitution of this Cys residue abolishes the binding of a Zn atom which holds together the DNA-binding loops of the p53 core domain. Therefore, the unfolding of this mutant p53 protein is probably too extensive to be restored.

[3] = system: endogenous mutant p53 proteins; format: biochemical, human; conditions: cell extracts of human tumor cell lines, band shift
Procedure: PAb421 antibody was added to all reaction mixtures. […] Monoclonal antibody PAb421 was added to the reaction mixtures in lanes 2-8; PAb1801 was added to the reaction mixtures in lanes 9-15.
The GST-p53 proteins were prepared as described (Selivanova et al., 1997). Band shift assays were performed in binding buffer containing 100 mM HEPES pH 7.5, 50 mM KCl, 1 mg/ml BSA, 0.1% Triton X-100, 2 mM MgC12 and 1 mM DTT essentially as in (Selivanova et al., 1996).

SKOV-His-175 cells = assay: WST-1 proliferation assay, SKOV-His-175 cells (cycloheximide, His-175-22/23 comparison); format: cell-based, human; conditions: for increase in cell survival after cycloheximide pretreatment: cycloheximide before compound, WST-1
[4] = system: p53-responsive PG-luciferase reporter in Saos-2-His-273 cells; assay: PG-luciferase p53 reporter assay in Saos-2-His-273; format: cell-based, human
Procedure: Transactivation assays using p53-responsive promoter constructs linked to the luciferase reporter gene (PG-luc) were performed by the Dual Luciferase Reporter Assay System (Promega) according to the manufacturer. […] A luciferase activity was assayed 1; 3.5 and 15 hours post-treatment.
Whereas compound MIRA-1 stimulated luciferase expression 2-fold already after 3.5 hours, 2-fold induction by compound PRIMA-I was achieved only after 15 hours of treatment.

[5] = system: p53-responsive EGFP reporter in SKOV-His-175 cells; assay: p53-responsive EGFP reporter in SKOV-His-175 cells; format: cell-based, human
Procedure: FIG. 9B, mutant p53-dependent activation of the wild-type p53-responsive EGFP reporter in PRIMA-1-treated SKOV-His-175 cells. […] FIG. 9C, MIRA-1 induced wild-type p53-responsive EGFP reporter in SKOV-His-175 cells.
The p53-EGFP plasmid contains 13 synthetic p53 consensus DNA binding sites in front of the EGFP coding sequence. Transient transfections experiments were performed with Lipofectamine 2000 according to the manufacturer's recommendations (Invitrogemm Life Technologies, Groningen, The Netherlands).
We also transiently transfected SKOV-His-175 cells with a p53-responsive EGFP reporter.

[6] = system: p21 and MDM2 in H1299-His-175 cells; assay: Western blot of p53 target genes p21 and MDM2, H1299-His-175; format: cell-based, human
[7] = system: MDM2 and p21 in HCT 116 colon carcinoma cells (wild type p53); assay: Western blot of MDM2 and p21, HCT 116; format: cell-based, human
[8] = absence of mutant p53 expression
[9] = cells expressing mutant p53, PRIMA-1 25 μM, MIRA-1 10 μM

CCCOCN1C(=O)C=CC1=O [MIRA-1, 1-(propoxymethyl)-maleimide]
number of colonies, of untreated control (Saos-2-His-273 cells; 5 μM, colonies counted after 14 days): 15% | growth suppression (Saos-2-His-273 cell line): suppressed the growth of cells expressing mutant p53 but did not affect the growth of cells lacking p53 expression | growth suppression by p53 status [1]: suppressed the growth of mutant p53-expressing cells more efficiently then p53 null and wild type p53 containing cells | induction of apoptosis [2]: much less prominent as compared to Saos-2-His-273 cells | mutant p53 proteins with restored specific DNA binding [3]: 3 out of 14 | sensitivity of SKOV-His-175 cells in comparison with SKOV-His-175-22/23 cells (SKOV-His-175 cells; after compound treatment): at least 3 fold | increase in cell survival after cycloheximide pretreatment (SKOV-His-175 cells): about 4 fold | stimulation of luciferase expression ([4]; after 3.5 hours): 2 fold | EGFP reporter expression ([5]; 5 μM for 24 hours): induction of EGFP was also observed | induction of MDM2 and p21 [6, 8]: did not cause any induction of MDM2 nor p21 | induction of MDM2 and p21 [6, 9]: solid induction of both MDM2 and p21 | MDM2 and p21 protein levels [7]: did not cause any significant changes

O=C1C2CCN(CC2)C1(CO)CO [PRIMA-1, 2,2-bis(hydroxymethyl)-1-azabicyclo[2.2.2]octan-3-one]
doses inhibitory in a mutant p53-dependent manner (Saos-2-His-273 cells; colony formation, 14 days): 50 to 100 µM | growth of cells (growth curves) (Saos-2-His-273 cell line; [8]): only caused a minor reduction in growth rate | growth of cells (growth curves) (Saos-2-His-273 cell line; cells expressing mutant p53): completely inhibited growth | growth suppression (Saos-2-His-273 cell line): suppressed the growth of cells expressing mutant p53 but did not affect the growth of cells lacking p53 expression | growth suppression by p53 status [1]: suppressed the growth of mutant p53-expressing cells more efficiently then p53 null and wild type p53 containing cells | induction of apoptosis [2]: much less prominent as compared to Saos-2-His-273 cells | mutant p53 proteins with restored specific DNA binding [3]: 13 out of 14 | increase in cell survival after cycloheximide pretreatment (SKOV-His-175 cells): 4 fold | induction of luciferase expression ([4]; after 15 hours of treatment): 2 fold | EGFP reporter expression ([5]; cells expressing mutant p53, 24 hours): strong induction of EGFP expression | EGFP reporter expression ([5]; presence of doxycycline (p53 off)): did not express detectable levels of EGFP | induction of MDM2 and p21 [6, 8]: did not cause any induction of MDM2 nor p21 | induction of MDM2 and p21 [6, 9]: solid induction of both MDM2 and p21 | MDM2 and p21 protein levels [7]: did not cause any significant changes
